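Briefly, cells in 96-well plates were exposed to five compound concentrations for 48 h, and endpoints were estimated by linear interpolation. Abbreviation: GI50, concentration required for 50% inhibition of growth.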 Active and inactive are the calls of the source. No stated cut-off is given here; in the data, active = GI50 up to about 1.1 µM and inactive = higher. Numbered stars: 1 amine (or outer) side, 2 acyl side, 3 side chain; on linkers, the order of the positions; unused ones are H or OH. Bridge positions count the residues as written; N and C are the ends. Square brackets hold non-standard residues; d marks the D form. Peptide text beside a SMILES is read from it. I, II: the chains in the order shown. Actinocin(9to1) = Cc1c2oc3c(C)ccc(C(=O)[*:1])c3nc-2c(C(=O)[*:2])c(N)c1=O; X48 = O=C1CC(C(=O)[*:2])N([*:1])C1; NMeV = CN[CH](C(=O)O)C(C)C; Sar = CNCC(=O)O
What was measured:
Test in all cases: growth of human tumour cells (NCI), 48 h
SF-268 = system: SF-268
SW-620 = system: SW-620
K562 = system: K562
OVCAR-4 = system: OVCAR-4
TK-10 = system: TK-10
SK-MEL-28 = system: SK-MEL-28
HCC 2998 = system: HCC 2998
KM12 = system: KM12
EKVX = system: EKVX
OVCAR-5 = system: OVCAR-5
CCRF-CEM = system: CCRF-CEM
IGROV-1 = system: IGROV-1
NCI-H522 = system: NCI-H522
DU-145 = system: DU-145
NCI-H23 = system: NCI-H23
MDA-MB-435 = system: MDA-MB-435
LOX IMVI = system: LOX IMVI
MOLT-4 = system: MOLT-4
UO-31 = system: UO-31
SF-295 = system: SF-295
U-251 = system: U-251
SR = system: SR
HL-60 = system: HL-60
SF-539 = system: SF-539
NCI/ADR-RES = system: NCI/ADR-RES
A498 = system: A498
MCF7 = system: MCF7
MDA-N = system: MDA-N
Hs-578T = system: Hs-578T
M14 = system: M14
SN12C = system: SN12C
UACC-257 = system: UACC-257
SNB-75 = system: SNB-75
OVCAR-3 = system: OVCAR-3
SK-MEL-2 = system: SK-MEL-2
HCT-15 = system: HCT-15
UACC-62 = system: UACC-62
HOP-92 = system: HOP-92
Malme-3M = system: Malme-3M
A549 = system: A549
T47D = system: T47D
NCI-H460 = system: NCI-H460
786-0 = system: 786-0
COLO 205 = system: COLO 205
CAKI-1 = system: CAKI-1
ACHN = system: ACHN
MDA-MB-231 = system: MDA-MB-231
SNB-19 = system: SNB-19
SK-OV-3 = system: SK-OV-3
HCT-116 = system: HCT-116
OVCAR-8 = system: OVCAR-8
RPMI-8226 = system: RPMI-8226
RXF 393 = system: RXF 393
HT-29 = system: HT-29
HOP-62 = system: HOP-62
PC-3 = system: PC-3
SK-MEL-5 = system: SK-MEL-5
NCI-H226 = system: NCI-H226

COC(=O)CCCC(=O)NC1=C(Nc2ccccc2)C(=O)c2ccccc2C1=O
GI50 (SF-268): 30.7 µM (inactive) | GI50 (SW-620): 25.2 µM (inactive) | GI50 (K562): 19.2 µM (inactive) | GI50 (OVCAR-4): 19.3 µM (inactive) | GI50 (TK-10): 26.8 µM (inactive) | GI50 (SK-MEL-28): 16.7 µM (inactive) | GI50 (HCC 2998): 14.7 µM (inactive) | GI50 (KM12): 5.24 µM (inactive) | GI50 (EKVX): 24.4 µM (inactive) | GI50 (OVCAR-5): 16.8 µM (inactive) | GI50 (CCRF-CEM): 22.8 µM (inactive) | GI50 (IGROV-1): 16 µM (inactive) | GI50 (NCI-H522): 16.9 µM (inactive) | GI50 (DU-145): 15.2 µM (inactive) | GI50 (NCI-H23): 10.6 µM (inactive) | GI50 (MDA-MB-435): 5.51 µM (inactive) | GI50 (LOX IMVI): 17.4 µM (inactive) | GI50 (MOLT-4): 16.6 µM (inactive) | GI50 (UO-31): 21.2 µM (inactive) | GI50 (SF-295): 17.5 µM (inactive) | GI50 (U-251): 14.4 µM (inactive) | GI50 (SR): 30.2 µM (inactive) | GI50 (HL-60): 20.5 µM (inactive) | GI50 (SF-539): 18.6 µM (inactive) | GI50 (NCI/ADR-RES): 18.2 µM (inactive) | GI50 (A498): 16.9 µM (inactive) | GI50 (MCF7): 15.4 µM (inactive) | GI50 (MDA-N): 3.89 µM (inactive) | GI50 (Hs-578T): 28.7 µM (inactive) | GI50 (M14): 16.1 µM (inactive) | GI50 (SN12C): 18 µM (inactive) | GI50 (UACC-257): 13.3 µM (inactive) | GI50 (SNB-75): 18.4 µM (inactive) | GI50 (OVCAR-3): 12.6 µM (inactive) | GI50 (SK-MEL-2): 18.1 µM (inactive) | GI50 (HCT-15): 15.1 µM | GI50 (UACC-62): 3.27 µM (inactive) | GI50 (HOP-92): 21.8 µM (inactive) | GI50 (Malme-3M): 3.56 µM (inactive) | GI50 (A549): 19.5 µM (inactive) | GI50 (T47D): 24.3 µM (inactive) | GI50 (NCI-H460): 16.6 µM (inactive) | GI50 (786-0): 17.9 µM (inactive) | GI50 (COLO 205): 16.3 µM (inactive) | GI50 (CAKI-1): 20.1 µM (inactive) | GI50 (ACHN): 19.3 µM (inactive) | GI50 (MDA-MB-231): 19.1 µM (inactive) | GI50 (SNB-19): 18.2 µM (inactive) | GI50 (SK-OV-3): 22.5 µM (inactive) | GI50 (HCT-116): 16.6 µM (inactive) | GI50 (OVCAR-8): 31.9 µM (inactive) | GI50 (RPMI-8226): 17.6 µM (inactive)

C=CC1CN2CCC1CC2C(O)c1ccnc2ccc(OC)cc12 (configuration not stated)
GI50 (NCI-H23): 89.1 µM (inactive)

Nc1nc(Cl)cc(OCC2(CO)CCCC2)n1
GI50 (SF-268): > 100 µM (inactive) | GI50 (SW-620): > 100 µM (inactive) | GI50 (K562): > 100 µM (inactive) | GI50 (RXF 393): 79.8 µM (inactive) | GI50 (OVCAR-4): > 100 µM (inactive) | GI50 (TK-10): > 100 µM (inactive) | GI50 (SK-MEL-28): > 100 µM (inactive) | GI50 (HCC 2998): > 100 µM (inactive) | GI50 (EKVX): 91.4 µM (inactive) | GI50 (OVCAR-5): > 100 µM (inactive) | GI50 (CCRF-CEM): > 100 µM (inactive) | GI50 (IGROV-1): > 100 µM (inactive) | GI50 (NCI-H522): > 100 µM (inactive) | GI50 (DU-145): > 100 µM (inactive) | GI50 (NCI-H23): > 100 µM (inactive) | GI50 (MDA-MB-435): > 100 µM (inactive) | GI50 (LOX IMVI): > 100 µM (inactive) | GI50 (MOLT-4): > 100 µM (inactive) | GI50 (SF-295): > 100 µM (inactive) | GI50 (U-251): > 100 µM (inactive) | GI50 (HL-60): > 100 µM (inactive) | GI50 (SF-539): > 100 µM (inactive) | GI50 (NCI/ADR-RES): > 100 µM (inactive) | GI50 (A498): > 100 µM (inactive) | GI50 (MCF7): > 100 µM (inactive) | GI50 (MDA-N): > 100 µM (inactive) | GI50 (Hs-578T): > 100 µM (inactive) | GI50 (HT-29): > 100 µM (inactive) | GI50 (SN12C): > 100 µM (inactive) | GI50 (UACC-257): > 100 µM (inactive) | GI50 (SNB-75): > 100 µM (inactive) | GI50 (HOP-62): > 100 µM (inactive) | GI50 (OVCAR-3): > 100 µM (inactive) | GI50 (PC-3): > 100 µM (inactive) | GI50 (HCT-15): > 100 µM | GI50 (HOP-92): > 100 µM (inactive) | GI50 (Malme-3M): > 100 µM (inactive) | GI50 (SK-MEL-5): > 100 µM (inactive) | GI50 (A549): > 100 µM (inactive) | GI50 (NCI-H226): > 100 µM (inactive) | GI50 (NCI-H460): > 100 µM (inactive) | GI50 (786-0): > 100 µM (inactive) | GI50 (ACHN): > 100 µM (inactive) | GI50 (SNB-19): > 100 µM (inactive) | GI50 (HCT-116): > 100 µM (inactive) | GI50 (OVCAR-8): > 100 µM (inactive) | GI50 (RPMI-8226): > 100 µM (inactive)

Cc1c2oc3c(C)ccc(C(=O)NC4C(=O)NC(C(C)C)C(=O)N5CC(=O)CC5C(=O)N(C)CC(=O)N(C)C(C(C)C)C(=O)OC4C)c3nc-2c(C(=O)NC2C(=O)NC(C(C)C)C(=O)N3CC(=O)CC3C(=O)N(C)CC(=O)N(C)C(C(C)C)C(=O)OC2C)c(N)c1=O (configuration not stated) (I: TV[X48][Sar][NMeV] / II: TV[X48][Sar][NMeV]; ester I:1-I:C, II:1-II:C; linker I:N-II:N via Actinocin(9to1); configuration not given here)
GI50 (SW-620): > 1 µM (active) | GI50 (K562): > 1 µM (active) | GI50 (RXF 393): 0.476 µM (active) | GI50 (OVCAR-4): > 1 µM (active) | GI50 (TK-10): > 1 µM (active) | GI50 (SK-MEL-28): > 1 µM (active) | GI50 (HCC 2998): > 1 µM (active) | GI50 (EKVX): > 1 µM (active) | GI50 (OVCAR-5): > 1 µM (active) | GI50 (CCRF-CEM): > 1 µM (active) | GI50 (IGROV-1): > 1 µM (active) | GI50 (DU-145): > 1 µM (active) | GI50 (NCI-H23): > 1 µM (active) | GI50 (MDA-MB-435): > 1 µM (active) | GI50 (LOX IMVI): > 1 µM (active) | GI50 (MOLT-4): > 1 µM (active) | GI50 (UO-31): > 1 µM (active) | GI50 (SF-295): > 1 µM (active) | GI50 (U-251): > 1 µM (active) | GI50 (SR): 0.948 µM (active) | GI50 (HL-60): > 1 µM (active) | GI50 (SF-539): > 1 µM (active) | GI50 (NCI/ADR-RES): > 1 µM (active) | GI50 (A498): > 1 µM (active) | GI50 (MCF7): 0.0277 µM (active) | GI50 (MDA-N): > 1 µM (active) | GI50 (HT-29): > 1 µM (active) | GI50 (M14): > 1 µM (active) | GI50 (SN12C): > 1 µM (active) | GI50 (UACC-257): > 1 µM (active) | GI50 (HOP-62): > 1 µM (active) | GI50 (OVCAR-3): > 1 µM (active) | GI50 (SK-MEL-2): > 1 µM (active) | GI50 (PC-3): > 1 µM (active) | GI50 (HCT-15): > 1 µM | GI50 (HOP-92): > 1 µM (active) | GI50 (Malme-3M): > 1 µM (active) | GI50 (SK-MEL-5): > 1 µM (active) | GI50 (A549): 0.253 µM (active) | GI50 (NCI-H226): > 1 µM (active) | GI50 (T47D): > 1 µM (active) | GI50 (NCI-H460): > 1 µM (active) | GI50 (786-0): > 1 µM (active) | GI50 (COLO 205): > 1 µM (active) | GI50 (CAKI-1): > 1 µM (active) | GI50 (ACHN): > 1 µM (active) | GI50 (MDA-MB-231): > 1 µM (active) | GI50 (SNB-19): > 1 µM (active) | GI50 (SK-OV-3): > 1 µM (active) | GI50 (HCT-116): > 1 µM (active) | GI50 (OVCAR-8): > 1 µM (active) | GI50 (RPMI-8226): > 1 µM (active)

From ChEMBL document CHEMBL1201862, “PubChem BioAssay data set” (2004)
